Reference: patent US20040192888A1, “Method of preparing peptide with high yield and high purity using2-(4-nitrophenylsulfonyl) ethoxycarbonyl-amino acids” (priority 2001, published 2004)

Assay: Dissolution comparison of Nα-Nsc-amino acids and Nα-Fmoc-amino acids
Format: physicochemical
Set-up: key: ◯: dissolution; Δ: partial dissolution; X: no dissolution
Settings: for Dissolved state, Fmoc, column B / Dissolved state, Fmoc, column A / Dissolved state, Fmoc, column D / Dissolved state, Fmoc, column C: Fmoc-amino acid; for Dissolved state, Fmoc, column B / Dissolved state, Fmoc, column A / Dissolved state, Nsc, column B / Dissolved state, Nsc, column A: 100 mg in 1 ml dichloromethane; for Dissolved state, Fmoc, column B / Dissolved state, Fmoc, column D / Dissolved state, Nsc, column B / Dissolved state, Nsc, column D: heated at 40° C. for 5 minutes, then room temperature 5 minutes; for Dissolved state, Fmoc, column A / Dissolved state, Fmoc, column C / Dissolved state, Nsc, column A / Dissolved state, Nsc, column C: stirring 5 minutes; for Dissolved state, Fmoc, column D / Dissolved state, Fmoc, column C / Dissolved state, Nsc, column D / Dissolved state, Nsc, column C: 15% DMF/DCM; for Dissolved state, Nsc, column B / Dissolved state, Nsc, column A / Dissolved state, Nsc, column D / Dissolved state, Nsc, column C: Nsc-amino acid
Experimental: Since only amino acids fully dissolved in a solvent can be used in acylation reactions, the following tests were performed to find solvent conditions in which amino acids can be completely dissolved.
100 mg of each of Nα-Nsc-amino acids and Nα-Fmoc-amino acids shown in Table 1, below, were precisely weighed and added to two containers added with 1 ml of dichloromethane (hereinafter, referred to as “DCM”), followed by stirring for 5 minutes. The dissolved states of amino acids were observed and are expressed in column A of the following Table 1.
Other amino acids, exclusive of totally dissolved amino acids, were heated in an oven at 40° C. for 5 minutes, and allowed to stand at room temperature for 5 minutes. Their dissolved states are shown in column B.
As such, the undissolved amino acids were dissolved in 15% dimethylformamide (hereinafter, referred to as “DMF”)/DCM in the same manner as in the case of the above column A, and their dissolved states are presented in column C.
Still undissolved amino acids were heated in an oven at 40° C. for 5 minutes, and allowed to stand at room temperature for 5 minutes. Their dissolved states were observed and are shown in column D.

| SMILES | Dissolved state, Fmoc, column B | Dissolved state, Fmoc, column A | Dissolved state, Fmoc, column D | Dissolved state, Fmoc, column C | Dissolved state, Nsc, column B | Dissolved state, Nsc, column A | Dissolved state, Nsc, column D | Dissolved state, Nsc, column C |
| --- | --- | --- | --- | --- | --- | --- | --- | --- |
| C[C@H](NC(=O)OCC1c2ccccc2-c2ccccc21)C(=O)O [Fmoc-Ala, reference compound] | X | X | ◯ | Δ | – | – | – | – |
| CC(=O)NCSCC(NC(=O)OCC1c2ccccc2-c2ccccc21)C(=O)O (centres unmarked) [Fmoc-Cys, reference compound] | X | X | ◯ | Δ | – | – | – | – |
| NC(=O)CC[C@H](NC(=O)OCC1c2ccccc2-c2ccccc21)C(=O)O [Fmoc-Gln, reference compound] | ◯ | ◯ | ◯ | ◯ | – | – | – | – |
| O=C(O)CNC(=O)OCC1c2ccccc2-c2ccccc21 [Fmoc-Gly, reference compound] | X | X | ◯ | Δ | – | – | – | – |
| O=C(NC(Cc1cn(C(c2ccccc2)(c2ccccc2)c2ccccc2)cn1)C(=O)O)OCC1c2ccccc2-c2ccccc21 (centres unmarked) [Fmoc-His, reference compound] | ◯ | ◯ | ◯ | ◯ | – | – | – | – |
| CC[C@H](C)[C@H](NC(=O)OCC1c2ccccc2-c2ccccc21)C(=O)O [Fmoc-Iie, reference compound] | Δ | Δ | ◯ | ◯ | – | – | – | – |
| CC(C)C[C@@H](NC(=O)OCC1c2ccccc2-c2ccccc21)C(=O)O [Fmoc-Leu, reference compound] | ◯ | Δ | ◯ | ◯ | – | – | – | – |
| CC(C)(C)OC(=O)NCCCCC(NC(=O)OCC1c2ccccc2-c2ccccc21)C(=O)O (centres unmarked) [Fmoc-Lys, reference compound] | ◯ | ◯ | ◯ | ◯ | – | – | – | – |
| CSCC[C@H](NC(=O)OCC1c2ccccc2-c2ccccc21)C(=O)O [Fmoc-Met, reference compound] | ◯ | X | ◯ | ◯ | – | – | – | – |
| O=C(N[C@@H](Cc1ccccc1)C(=O)O)OCC1c2ccccc2-c2ccccc21 [Fmoc-Phe, reference compound] | X | X | ◯ | Δ | – | – | – | – |
| O=C(O)[C@@H]1CCCN1C(=O)OCC1c2ccccc2-c2ccccc21 [Fmoc-Pro, reference compound] | ◯ | ◯ | ◯ | ◯ | – | – | – | – |
| CC(C)(C)OCC(NC(=O)OCC1c2ccccc2-c2ccccc21)C(=O)O (centres unmarked) [Fmoc-Ser, reference compound] | ◯ | ◯ | ◯ | ◯ | – | – | – | – |
| CC(OC(C)(C)C)C(NC(=O)OCC1c2ccccc2-c2ccccc21)C(=O)O (centres unmarked) [Fmoc-Thr, reference compound] | ◯ | ◯ | ◯ | ◯ | – | – | – | – |
| O=C(NC(Cc1c[nH]c2ccccc12)C(=O)O)OCC1c2ccccc2-c2ccccc21 (centres unmarked) [Fmoc-Trp, reference compound] | X | X | ◯ | ◯ | – | – | – | – |
| CC(C)(C)Oc1ccc(CC(NC(=O)OCC2c3ccccc3-c3ccccc32)C(=O)O)cc1 (centres unmarked) [Fmoc-Tyr, reference compound] | ◯ | Δ | ◯ | ◯ | – | – | – | – |
| CC(C)[C@H](NC(=O)OCC1c2ccccc2-c2ccccc21)C(=O)O [Fmoc-Val, reference compound] | X | X | ◯ | ◯ | – | – | – | – |
| C[C@H](NC(=O)OCCS(=O)(=O)c1ccc([N+](=O)[O-])cc1)C(=O)O [Nsc-Ala] | – | – | – | – | X | X | ◯ | ◯ |
| Cc1c(C)c(S(=O)(=O)N=C(N)NCCCC(NC(=O)OCCS(=O)(=O)c2ccc([N+](=O)[O-])cc2)C(=O)O)c(C)c2c1OC(C)(C)C2 (centres unmarked) [Nsc-Arg] | – | – | – | – | ◯ | ◯ | ◯ | ◯ |
| O=C(CC(NC(=O)OCCS(=O)(=O)c1ccc([N+](=O)[O-])cc1)C(=O)O)NC(c1ccccc1)(c1ccccc1)c1ccccc1 (centres unmarked) [Nsc-Asn] | – | – | – | – | X | X | ◯ | ◯ |
| CC(C)(C)OC(=O)CCC(NC(=O)OCCS(=O)(=O)c1ccc([N+](=O)[O-])cc1)C(=O)O (centres unmarked) [Nsc-Glu] | – | – | – | – | ◯ | ◯ | ◯ | ◯ |
| O=C(O)CNC(=O)OCCS(=O)(=O)c1ccc([N+](=O)[O-])cc1 [Nsc-Gly] | – | – | – | – | X | X | ◯ | Δ |
| O=C(NC(Cc1cn(C(c2ccccc2)(c2ccccc2)c2ccccc2)cn1)C(=O)O)OCCS(=O)(=O)c1ccc([N+](=O)[O-])cc1 (centres unmarked) [Nsc-His] | – | – | – | – | ◯ | Δ | ◯ | ◯ |
| CC[C@H](C)[C@H](NC(=O)OCCS(=O)(=O)c1ccc([N+](=O)[O-])cc1)C(=O)O [Nsc-Iie] | – | – | – | – | ◯ | Δ | ◯ | ◯ |
